Measurements published in patent US20260364181A1, “AKR1C3 Targeted Heterobifunctional Small Molecule Proteolysis Targeting Chimeras” (BOARD OF REGENTS OF THE UNIVERSITY OF NEBRASKA, priority 2022, published 2026).

Columns and labels:
AKR1C3 [1] = target: T1, AKR1C3 (Homo sapiens, UniProt P42330); assay: AKR1C3 enzyme inhibition (oxidation of S-tetralol); assay type: biochemical; details: role: substrate
T1 sequence (P42330 1-323): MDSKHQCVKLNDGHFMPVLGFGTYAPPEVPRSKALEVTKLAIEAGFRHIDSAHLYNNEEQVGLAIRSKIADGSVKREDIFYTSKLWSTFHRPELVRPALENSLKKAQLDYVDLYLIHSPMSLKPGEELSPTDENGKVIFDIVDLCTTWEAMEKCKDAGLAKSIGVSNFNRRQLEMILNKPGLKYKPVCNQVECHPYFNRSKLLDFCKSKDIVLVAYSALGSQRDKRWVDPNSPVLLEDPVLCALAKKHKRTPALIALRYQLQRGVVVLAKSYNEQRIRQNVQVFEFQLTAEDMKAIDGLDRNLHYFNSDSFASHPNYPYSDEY
Procedure: (§1) Enzyme Inhibition Assay. (S)-(+)-1,2,3,4-tetrahydro-1-naphthol (S-tetralol) was purchased from Sigma-Aldrich (St. Louis, MO). Nicotinamide adenine dinucleotide (NAD^+) and nicotinamide adenine dinucleotide phosphate (NADP^+) were purchased from Roche Diagnostics (Indianapolis, IN). Homogeneous recombinant enzymes AKR1C1, AKR1C2, AKR1C3 and AKR1C4 were prepared and purified as previously described.^3 The specific activities of AKR1C3 and AKR1C2 for the oxidation of S-tetralol are 2.0 and 1.5 μmol/(min mg), respectively.
(§2) Assay of Enzyme Activity. The dehydrogenase activities of AKR1C3 and AKR1C2 were determined by measuring the UV absorption of NADH formation at 340 nm using a Beckman DU-640 spectrophotometer. […] After continuously monitoring for 5 min, we recorded the increase in UV absorption using different concentrations of an enzyme to calculate the initial velocity and determine the specific activity of the enzyme.
(§3) IC50 Value Determination. The inhibitory potency for each compound was represented by IC50 values and measured as described before. The IC50 values of [COMPOUND LEFT OUT] and [COMPOUND LEFT OUT] analogues were determined by measuring their inhibition of the NADP+-dependent oxidation of S-tetralol catalyzed by AKR1C3 or AKR1C2. […]

AKR1C2 = target: T2, AKR1C2 (Homo sapiens, UniProt P52895); assay: AKR1C2 enzyme inhibition (oxidation of S-tetralol); assay type: biochemical; details: role: substrate; 3.0 mM S-tetralol, 2.3 mM NAD+, 100 mM potassium phosphate pH 7.0, 37 °C
T2 construct: made in house
T2 sequence (P52895 1-323): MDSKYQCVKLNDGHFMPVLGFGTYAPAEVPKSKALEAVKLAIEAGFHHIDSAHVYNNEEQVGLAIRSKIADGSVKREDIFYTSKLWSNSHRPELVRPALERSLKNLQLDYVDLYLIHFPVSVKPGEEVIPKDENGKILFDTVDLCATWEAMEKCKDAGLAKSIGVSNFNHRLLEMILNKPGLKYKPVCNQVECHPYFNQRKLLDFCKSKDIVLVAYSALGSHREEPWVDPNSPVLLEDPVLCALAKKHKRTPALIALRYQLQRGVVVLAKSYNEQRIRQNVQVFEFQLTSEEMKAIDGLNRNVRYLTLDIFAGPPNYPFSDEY
Procedure: as §1, §2, §3

AKR1C3 [2] = target: T1, AKR1C3; assay: AKR1C3 protein degradation in 22Rv1 prostate cancer cells (Western blot); assay type: cell-based; set-up: 22Rv1 prostate cancer cells that express high levels of AKR1C3; host or cells: 22Rv1; details: 1 μM and 10 μM; 24 h; in words
Procedure: Protein Expression via Western Blot. 22Rv1 cells were seeded in a 6-well plate and incubated overnight. Next day, the cells were treated with varying concentrations of 6 (1 and 10 μM) and 5 (0.5, 1, 10, 50, 100, 250, and 500 nM; 1, 10, and 50 μM) for 24 hours and 5 (1 and 10 nM) at different time points (0, 2, 4, 6, 12, 16, 24, 48, and 72 h). Whole cell lysates were extracted in RIPA lysis buffer containing protease inhibitor and EDTA (Fisher Scientific, PI78440). Protein concentrations in each sample was estimated following BCA assay (Pierce™ BCA protein assay kit, Fisher Scientific, PI23227) as per the manufacturer's protocol. Proteins were standardized using RIPA lysis buffer with Laemelli SDS sample buffer (Thermo Scientific, AAJ61337AC) and heated at 1000C for 15 minutes. The proteins were resolved on a 4-12% premade gel (Invitrogen, NW04120BOX) at 60-90 V in 20× Bolt™ MES SDS running buffer (Fisher Scientific, B000202) and transferred onto a nitrocellulose membrane (Invitrogen, IB23001) using iBlot 2. The membranes were blocked with 2.5% non-fat dry milk (Bio-Rad, 1706404) for 1 h, and the membrane was incubated overnight on a rocking platform at 4 °C with the desired primary antibodies against AKR1C3 (mouse mAb, 1:200, Sigma, A6229), AKR1C1/C2 (rabbit mAb, 1:500, Abcam, ab179448), ARv7 (rabbit mAb, 1:500, Abcam, ab198394) and actin (mouse mAb, 1:1,000, ThermoFisher, MA5-11869). The membranes were washed three times, 10 minutes each, with 1×Tris-buffered saline (TBST, Bio-Rad, 1706435) in 0.1% Tween 20, on a rocking platform wherein they were incubated with rabbit anti-mouse IgG (ThermoFisher, 31450) or goat anti-rabbit IgG (Jackson ImmunoResearch, 111-035-003) secondary antibody (1:1,000) horseradish peroxidase conjugate for 1 hour. The membranes were again washed three times with 1×TBST, upon which they were exposed to LI-COR WesternSure PREMIUM chemiluminescent substrate (Fisher Scientific, 50-489-552) and developed in a dark room with Konica Minolta equipment. Bands were quantified by densitometry using ImageJ software and fold change in AKR1C3, AKR1C1/C2, and ARv7 protein expression was determined based on actin controls. […]
The AKR1C3 degradation effect of PROTAC 5 was screened across a range of concentrations to identify a suitable treatment protocol. 22Rv1 cells were treated with increasing concentrations of […], DMSO or lenalidomide 6 at 1 μM and 10 μM for 24 hours, and the degradation profile was determined by Western blot analysis with antibody for AKR1C3.

[3] = tested on: 22Rv1 prostate cancer cells; assay: 22Rv1 cell viability (MTS assay); assay type: cell-based; details: 72 h
Procedure: Cell culture and reagents. 22Rv1 cells were purchased from the American Type Culture Collection (ATCC in 2016) and cultured in RPMI 1640 supplemented with 10% Fetal Bovine Serum (FBS, Fisher Scientific, MT35011CV) and Penicillin-Streptomycin Solution (1%, Fisher Scientific, MT30001Cl) at 37 °C in a humidified incubator with 5% carbon dioxide atmosphere. Stock solutions of E3 ligase ligand, lenalidomide 6 (10 mM), PROTAC 5 (25 mM), and AKR1C3 inhibitor 3 (100 mM) were prepared in DMSO.
Cell viability assay. Cells were seeded at a density of 10,000 cells/well in a 96-well plate containing 100 μL growth media per well and were incubated at 37 °C in a humidified incubator with 5% carbon dioxide over ~18-24 hours. Cells were treated with 6, 5, and 3 serially diluted at the indicated concentrations limiting the final DMSO concentration to less than 0.1% and incubated at 37 °C for 72 hours. 10 μL of MTS reagent (CellTiter96®Aqueous One Solution Reagent, Promega, G3580) was added to each well and incubated at the above-mentioned conditions for 4 hours. Absorbance was recorded at OD 490 nm on a Synergy LX multi-mode reader and the viability of cells were plotted as percentage of DMSO control.

[4] = substrate: O[C@H]1CCCc2ccccc21; assay: AKR1C2 enzyme inhibition (oxidation of S-tetralol); assay type: biochemical; details: other: role: substrate; NADP+-dependent oxidation; pH 7.0; 37.0 °C
Procedure: as §1, §2, §3

O[C@H]1CCCc2ccccc21 [S-tetralol, (S)-(+)-1,2,3,4-tetrahydro-1-naphthol]
specific activity of AKR1C3 for oxidation of S-tetralol (AKR1C3 [1]; 3.0 mM S-tetralol, 2.3 mM NAD+, 100 mM potassium phosphate pH 7.0, 37 °C): 2.0 µmol/min/mg
Km (AKR1C3 [1]; NADP+-dependent oxidation): 165 µM
specific activity of AKR1C2 for oxidation of S-tetralol (AKR1C2): 1.5 µmol/min/mg

Nc1cccc2c1CN(C1CCC(=O)NC1=O)C2=O (stereo not shown) [lenalidomide 6, lenalidomide, reference compound]
effect on AKR1C3 expression (AKR1C3 [2]): no effect on AKR1C3 expression
22Rv1 cell viability activity in words [3]: no activity
IC50 ([3]; Homo sapiens, 22Rv1, MTS, mean±standard deviation of two independent experiments): > 100 µM

B1: AKR1C2 (Homo sapiens) (protein)
chain: T2 sequence (P52895 1-323)
notes: made in house
Km [4]: 15 µM
